Experimental data reported in ChEMBL document CHEMBL1126512, “Synthesis and antitumor evaluation of water soluble taxol phosphates” (Bioorg Med Chem Lett, 1993).
Values after ≈ are worked out from the molar mass of the structure shown. Values belong to the compound of their own block, whether it stands above or below them.

Assays:
Mus musculus [1] = assay: Antitumor activity against M109 tumor murine lung carcinoma infected mice after ip administration using DMSO an water as vehicle at a dose of 30 mg/kg/inj; type: functional; conditions: route intraperitoneal
Mus musculus [2] = assay: Antitumor activity against M109 tumor murine lung carcinoma infected mice after ip administration using DMSO an saline as vehicle at a dose of 50 mg/kg/inj; type: functional; conditions: route intraperitoneal
Mus musculus [3] = assay: Antitumor activity against M109 tumor murine lung carcinoma infected mice after ip administration using DMSO an water as vehicle at a dose of 25 mg/kg/inj; type: functional; conditions: route intraperitoneal
Mus musculus [4] = assay: Antitumor activity against M109 tumor murine lung carcinoma infected mice after ip administration using DMSO an saline as vehicle at a dose of 30 mg/kg/inj; type: functional; conditions: route intraperitoneal
[5] = Solubility was determined; value ranges from 6-7; type: physicochemical
[6] = Solubility was determined; type: physicochemical
Mus musculus [7] = assay: Antitumor activity against M109 tumor murine lung carcinoma infected mice after ip administration using DMSO an water as vehicle at a dose of 50 mg/kg/inj; type: functional; conditions: route intraperitoneal
Mus musculus [8] = assay: Antitumor activity against M109 tumor murine lung carcinoma infected mice after ip administration using DMSO an water as vehicle at a dose of 10 mg/kg/inj; type: functional; conditions: route intraperitoneal
Mus musculus [9] = assay: Antitumor activity against M109 tumor murine lung carcinoma infected mice after ip administration using DMSO an saline as vehicle at a dose of 10 mg/kg/inj; type: functional; conditions: route intraperitoneal
Mus musculus [10] = assay: Antitumor activity against M109 tumor murine lung carcinoma infected mice after ip administration using DMSO an saline as vehicle at a dose of 25 mg/kg/inj; 1/6 mice cured; type: functional; conditions: route intraperitoneal
Mus musculus [11] = assay: Antitumor activity against M109 tumor murine lung carcinoma infected mice after ip administration using DMSO an water as vehicle at a dose of 25 mg/kg/inj; 1/6 mice cured; type: functional; conditions: route intraperitoneal

Structure (SMILES): CC(=O)O[C@H]1C(=O)[C@]2(C)[C@@H](OP(=O)([O-])[O-])C[C@H]3OC[C@@]3(OC(C)=O)[C@H]2[C@H](OC(=O)c2ccccc2)[C@]2(O)C[C@H](OC(=O)[C@H](O)[C@@H](NC(=O)c3ccccc3)c3ccccc3)C(C)=C1C2(C)C.[Na+].[Na+]
Max T/C (Mus musculus [1]): 123

Structure (SMILES): CC(=O)O[C@H]1C(=O)[C@@]2(C)[C@H]([C@H](OC(=O)c3ccccc3)[C@]3(O)C[C@H](OC(=O)[C@H](OP(=O)(OCc4ccccc4)OCc4ccccc4)[C@@H](NC(=O)c4ccccc4)c4ccccc4)C(C)=C1C3(C)C)[C@]1(OC(C)=O)CO[C@@H]1C[C@@H]2O
Max T/C (Mus musculus [2]): 107

Structure (SMILES): CC(=O)O[C@H]1C(=O)[C@@]2(C)[C@H]([C@H](OC(=O)c3ccccc3)[C@]3(O)C[C@H](OC(=O)[C@H](OP(=O)([O-])[O-])[C@@H](NC(=O)c4ccccc4)c4ccccc4)C(C)=C1C3(C)C)[C@]1(OC(C)=O)CO[C@@H]1C[C@@H]2O.[Na+].[Na+]
Max T/C (Mus musculus [3]): 140

Structure (SMILES): CC(=O)O[C@H]1C(=O)[C@]2(C)[C@@H](OP(=O)([O-])[O-])C[C@H]3OC[C@@]3(OC(C)=O)[C@H]2[C@H](OC(=O)c2ccccc2)[C@]2(O)C[C@H](OC(=O)[C@H](OP(=O)([O-])[O-])[C@@H](NC(=O)c3ccccc3)c3ccccc3)C(C)=C1C2(C)C.[Na+].[Na+].[Na+].[Na+]
Max T/C (Mus musculus [4]): 103

solubility [5]: 6 µg/mL
Structure (SMILES): CC(=O)O[C@@]12CO[C@@H]1C[C@H](O)[C@@]1(C)C(=O)[C@H](O)C3=C(C)[C@@H](OC(=O)[C@H](O)[C@@H](NC(=O)OC(C)(C)C)c4ccccc4)C[C@@](O)([C@@H](OC(=O)c4ccccc4)[C@H]21)C3(C)C.O.O.O [DOCETAXEL]

solubility [6]: 0.25 µg/mL (≈ 0.293 µM)
Structure (SMILES): CC(=O)O[C@H]1C(=O)[C@@]2(C)[C@H]([C@H](OC(=O)c3ccccc3)[C@]3(O)C[C@H](OC(=O)[C@H](O)[C@@H](NC(=O)c4ccccc4)c4ccccc4)C(C)=C1C3(C)C)[C@]1(OC(C)=O)CO[C@@H]1C[C@@H]2O [PACLITAXEL]
Max T/C (Mus musculus [7]): 270 | Max T/C (Mus musculus [8]): 190 | Max T/C (Mus musculus [9]): 190 | Max T/C (Mus musculus [2]): 270 | Max T/C (Mus musculus [10]): 240 | Max T/C (Mus musculus [11]): 240
